In brackets after ≈: the same amount, converted by molar mass.
Each molecule was assayed on M. tuberculosis H37Rv growth inhibition (assay: Mycobacterium tuberculosis H37Rv growth inhibition, confirmatory dose response, cytotoxicity (AID 1332);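 note: bacteria incubated 7 days before adding Alamar blue readout reagent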).

First: N[C@H]1CONC1=O
Second: COc1cccc2c1C(=O)c1c(O)c3c(c(O)c1C2=O)C[C@@](O)(C(C)=O)C[C@@H]3O[C@H]1C[C@H](N)[C@H](O)[C@H](C)O1
The IC90 of the first is 13-fold higher: 2.27 µg/mL (≈ 22.3 µM) for the first, 0.169 µg/mL (≈ 0.32 µM) for the second.

Compared with `NC(=NCCCCCCN=C(N)/N=C(\N)Nc1ccc(Cl)cc1)/N=C(\N)Nc1ccc(Cl)cc1`, `CCCCC(CC)CN=C(N)NC(N)=NCCCCCCN=C(N)NC(N)=NCC(CC)CCCC` (stereo not drawn) is 2.5-fold higher in IC90: 0.295 µg/mL (≈ 0.584 µM) for the first, 0.729 µg/mL (≈ 1.43 µM) for the second.

Going from `CN(C)CCCN1c2ccccc2Sc2ccc(C(F)(F)F)cc21` to `CN1CCN(CCCN2c3ccccc3Sc3ccc(C(F)(F)F)cc32)CC1`, the IC90 falls from 7.29 µg/mL (≈ 20.7 µM) to 2.77 µg/mL (≈ 6.8 µM) (2.6-fold).

`CS(=O)(=O)c1ccc([C@@H](O)[C@@H](CF)NC(=O)C(Cl)Cl)cc1` and `CS(=O)(=O)c1ccc([C@@H](O)[C@@H](CO)NC(=O)C(Cl)Cl)cc1` are within 1.5-fold of each other in IC90: 2.7 µg/mL (≈ 7.53 µM) for the first, 2.42 µg/mL (≈ 6.81 µM) for the second.

Compared with `CC[C@H](C)[C@H]1O[C@]2(CC[C@@H]1C)C[C@@H]1C[C@@H](C/C=C(\C)[C@@H](O[C@H]3C[C@H](OC)[C@@H](O[C@H]4C[C@H](OC)[C@@H](O)[C@H](C)O4)[C@H](C)O3)[C@@H](C)/C=C/C=C3\CO[C@@H]4[C@H](O)C(C)=C[C@@H](C(=O)O1)[C@]34O)O2`, `CN[C@@H]1[C@@H](O)[C@@H](O[C@@H]2[C@@H](O)[C@H](O[C@H]3O[C@H]([C@@H](C)N)CC[C@H]3N)[C@@H](N)C[C@H]2N)OC[C@]1(C)O` is 1.5-fold lower in IC90: 1.29 µg/mL (≈ 1.48 µM) for the first, 0.859 µg/mL (≈ 1.85 µM) for the second.

Compared with `CO[C@@H]1[C@@H](OC(N)=O)[C@@H](O)C(Oc2ccc3c(O)c(NC(=O)c4ccc(O)c(CC=C(C)C)c4)c(=O)oc3c2C)OC1(C)C` (stereo partly drawn), `CC(=O)O[C@H]1C[C@@]2(C)[C@@H](C[C@@H](O)[C@H]3[C@@]4(C)CC[C@@H](O)[C@@H](C)C4CC[C@@]32C)/C1=C(\CCC=C(C)C)C(=O)O` (stereo partly drawn) is 8.5-fold lower in IC90: 4.96 µg/mL (≈ 8.1 µM) for the first, 0.586 µg/mL (≈ 1.13 µM) for the second.

Compared with `Nc1nc(=S)c2ncn([C@@H]3O[C@H](CO)[C@@H](O)[C@H]3O)c2[nH]1`, `NCC[C@H](O)C(=O)N[C@@H]1C[C@H](N)[C@@H](O[C@H]2O[C@H](CN)[C@@H](O)[C@H](O)[C@H]2O)[C@H](O)[C@H]1O[C@H]1O[C@H](CO)[C@@H](O)[C@H](N)[C@H]1O` is 300-fold lower in IC90: 11.9 µg/mL (≈ 39.7 µM) for the first, 0.04 µg/mL (≈ 0.0683 µM) for the second.

`CC(C)COCC(CN(Cc1ccccc1)c1ccccc1)N1CCCC1` (stereo not drawn) and `Cc1cccc(CN2CCN(C(c3ccccc3)c3ccc(Cl)cc3)CC2)c1` (stereo not drawn) are within 1.5-fold of each other in IC90: 11.3 µg/mL (≈ 30.7 µM) for the first, 7.72 µg/mL (≈ 19.7 µM) for the second.

Compared with `CCN(CC)CCNc1ccc(CO)c2sc3ccccc3c(=O)c12`, `CN(C)CC/C=C1\c2ccccc2Sc2ccc(Cl)cc21` is 4.9-fold lower in IC90: 19.4 µg/mL (≈ 54.5 µM) for the first, 3.93 µg/mL (≈ 12.4 µM) for the second.

First: CCSc1ccc2c(c1)N(CCCN1CCN(C)CC1)c1ccccc1S2
Second: Fc1ccc(C(OCCN2CCN(CCCc3ccccc3)CC2)c2ccc(F)cc2)cc1
The IC90 of the first is 1.8-fold higher: 6.34 µg/mL (≈ 15.9 µM) for the first, 3.58 µg/mL (≈ 7.94 µM) for the second.

First: Cc1cccc(C)c1NC(=O)CN1CCN(CCCC(c2ccc(F)cc2)c2ccc(F)cc2)CC1
Second: CN(CCCCCCCCCCN(C)C(=O)Oc1cccc([N+](C)(C)C)c1)C(=O)Oc1cccc([N+](C)(C)C)c1
The IC90 of the first is 2.4-fold higher: 5.27 µg/mL (≈ 10.7 µM) for the first, 2.19 µg/mL for the second.

In the case of `O=C(Nc1ccc([N+](=O)[O-])cc1Cl)c1cc(Cl)ccc1O`, the IC90 is reported as 0.076 µg/mL (≈ 0.232 µM).

Reference: PubChem BioAssay AID1332 (Southern Research Institute, 2008)
